In PMC5662840, “Effect of Gelsemium elegans and Mussaenda pubescens, the Components of a Detoxification Herbal Formula, on Disturbance of the Intestinal Absorptions of Indole Alkaloids in Caco-2 Cells” (Evidence-based Complementary and Alternative Medicine : eCAM, 2017):

What was measured:
P-gp and MRP2 = assay: Inhibition transport study: GM with ciclosporin (P-gp and MRP2 inhibitor) across Caco-2 cells monolayer; format: in vitro ADME, Human; settings: for Papp A→B at 4 h / Papp B→A at 4 h / efflux ratio at 4 h / Papp A→B / Papp B→A / efflux ratio: human, Caco-2; for Papp A→B at 4 h / Papp B→A at 4 h / Papp A→B / Papp B→A: GM + ciclosporin (10 μmol), mean ± SEM, n = 3; for Papp A→B at 4 h / Papp A→B: apical-to-basolateral; for Papp B→A at 4 h / Papp B→A: basolateral-to-apical; for efflux ratio at 4 h / efflux ratio: GM + ciclosporin, read-out: efflux ratio γ (Papp BL-AP / Papp AP-BL); for decrease of efflux ratio γ: GM + ciclosporin compared with GM
Protocol: (§1) As efflux transporters (P-gp and MRP2) are expressed on the apical side of Caco-2 cells, the absorption or efflux transport of indole alkaloids across this model was investigated in the presence of efflux transporters inhibitors. A selective P-gp inhibitor, verapamil (50 μmol), was added to GM. 10 μmol ciclosporin (a P-gp and MRP2 inhibitor) was also added to GM. The control group was set as well. After the preincubation, the different mixes were performed in Caco-2 cells monolayer. Transport studies were undertaken as mentioned above in the absorptive direction (AP-BL) and the efflux direction (BL-AP), separately. The samples were taken at 0, 1, 2, 3, and 4 h for LC-MS/MS analysis. The absorption and efflux transport apparent permeability (Papp) of indole alkaloids were determined.
(§2) All experiments were run in triplicate. […] The apparent permeability coefficients (Papp) for both the absorptive direction (AP→BL) and the efflux direction (BL→AP) studies were calculated according to the following:(3) Papp=dQ/dt/A×C0, where dQ/dt (μg·min^−1) is the drug permeation rate, A (cm^2) is the filter surface area, and C0 (μg·mL^−1) is the initial concentration in the donor chamber at t = 0 min.
(§3) The efflux ratio (γ) was calculated with the following equation:(4) γ=PappBL-AP/PappAP-BL.
(§4) The γ values are used to assess the effect of efflux transporters on the test compounds in the presence and absence of efflux transporters inhibitors.

P-gp = biological target: T1, P-gp (Homo sapiens, UniProt P08183); assay: Inhibition transport study: GM with verapamil (P-gp inhibitor) across Caco-2 cells monolayer; format: in vitro ADME; settings: for Papp A→B at 4 h / Papp B→A at 4 h / efflux ratio at 4 h / Papp A→B / Papp B→A / efflux ratio: human, Caco-2; for Papp A→B at 4 h / Papp B→A at 4 h / Papp A→B / Papp B→A: GM + verapamil (50 μmol), mean ± SEM, n = 3; for Papp A→B at 4 h / Papp A→B: apical-to-basolateral; for Papp B→A at 4 h / Papp B→A: basolateral-to-apical; for efflux ratio at 4 h / efflux ratio: GM + verapamil, read-out: efflux ratio γ (Papp BL-AP / Papp AP-BL); for decrease of efflux ratio γ: GM + verapamil compared with GM
T1 construct: endogenous in cells; host or cells: Caco-2 cells (cell bank of Chinese Academy of Sciences)
T1 sequence (P08183 whole entry): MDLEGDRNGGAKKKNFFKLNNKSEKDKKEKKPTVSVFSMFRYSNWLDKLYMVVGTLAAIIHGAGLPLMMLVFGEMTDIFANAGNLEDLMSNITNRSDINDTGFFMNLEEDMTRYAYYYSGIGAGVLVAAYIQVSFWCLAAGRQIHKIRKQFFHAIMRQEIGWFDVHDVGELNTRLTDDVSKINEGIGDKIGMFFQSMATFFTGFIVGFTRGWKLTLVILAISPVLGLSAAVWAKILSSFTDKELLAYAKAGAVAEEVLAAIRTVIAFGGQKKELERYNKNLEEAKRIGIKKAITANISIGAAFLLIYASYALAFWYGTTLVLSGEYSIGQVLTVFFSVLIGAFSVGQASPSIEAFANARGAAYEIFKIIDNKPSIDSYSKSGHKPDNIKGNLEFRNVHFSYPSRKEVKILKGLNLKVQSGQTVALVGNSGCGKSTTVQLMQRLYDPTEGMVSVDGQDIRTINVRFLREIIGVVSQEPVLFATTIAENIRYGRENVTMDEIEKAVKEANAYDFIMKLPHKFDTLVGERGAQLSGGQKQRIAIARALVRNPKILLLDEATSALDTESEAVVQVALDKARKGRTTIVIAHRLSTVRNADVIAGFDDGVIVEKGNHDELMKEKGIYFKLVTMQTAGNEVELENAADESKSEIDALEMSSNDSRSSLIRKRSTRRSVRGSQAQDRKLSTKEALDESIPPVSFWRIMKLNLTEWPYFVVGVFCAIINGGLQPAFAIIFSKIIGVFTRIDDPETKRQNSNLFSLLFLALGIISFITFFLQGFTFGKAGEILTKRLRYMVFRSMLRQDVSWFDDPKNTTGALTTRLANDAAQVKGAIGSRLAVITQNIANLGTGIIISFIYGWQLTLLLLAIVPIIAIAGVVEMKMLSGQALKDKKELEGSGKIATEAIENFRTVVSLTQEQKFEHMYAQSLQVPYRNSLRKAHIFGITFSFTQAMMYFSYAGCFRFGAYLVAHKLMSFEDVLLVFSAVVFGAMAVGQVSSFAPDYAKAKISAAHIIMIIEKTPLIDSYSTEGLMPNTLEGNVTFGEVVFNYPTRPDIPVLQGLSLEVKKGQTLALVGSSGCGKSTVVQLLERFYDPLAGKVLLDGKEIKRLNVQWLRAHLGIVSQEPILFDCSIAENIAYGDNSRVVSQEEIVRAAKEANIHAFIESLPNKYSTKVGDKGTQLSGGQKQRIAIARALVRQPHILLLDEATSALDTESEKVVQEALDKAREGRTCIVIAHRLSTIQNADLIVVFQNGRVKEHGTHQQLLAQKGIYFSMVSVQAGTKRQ
Protocol: as §1, §2, §3, §4

[1] = Bidirectional transport of indole alkaloids from GE and GM extracts across Caco-2 cells monolayer; format: in vitro ADME, Human; settings: human; for efflux ratio at 4 h / efflux ratio: Caco-2, GM without inhibitor, read-out: efflux ratio γ (Papp BL-AP / Papp AP-BL); for Papp A→B at 4 h / Papp B→A at 4 h / Papp A→B / Papp B→A: Caco-2, GM (control group), mean ± SEM, n = 3; for Papp A→B at 4 h / Papp A→B: apical-to-basolateral; for Papp B→A at 4 h / Papp B→A: basolateral-to-apical
Protocol: (§5) Human colon adenocarcinoma cell lines (Caco-2) were obtained from the cell bank of Chinese Academy of Sciences (Beijing, China). Cells were routinely grown in DMEM supplemented with 10% (v/v) fetal bovine serum, 1% (v/v) glutamine, 1% (v/v) nonessential amino acid solution, and 100 U/mL penicillin-streptomycin solution under a humidified atmosphere of 5% CO2 at 37°C. The medium was replaced every 2 days after incubation. After reaching 80% confluence, cells were passaged at a split ratio of 1 : 5, using 0.05% trypsin-EDTA. For the transport experiments, the cells of passages were seeded at a density of 1.0 × 10^6 cells/cm^2 on permeable polycarbonate inserts in 6-well tissue culture plates (Transwell Polycarbonate Membrance Insert 3414, Corning, USA), which has a surface area of 4.2 cm^2. Culture medium was changed every two days for 14 days and daily thereafter for the next 7 days. In our culture condition, cells monolayer, after seeding approximately between 19 and 21 days, usually was available for transport experiments.
(§6) The extracts, including GE and GM, were freshly prepared to the desired final concentration in DMSO. The final concentrations of DMSO in the incubation system were controlled within 0.1% (v/v) in all subsequent experiments. All transport experiments were conducted at 37°C unless specified otherwise. Transport of indole alkaloids across the Caco-2 cells monolayer was studied using monolayer of 19–21 days after seeding. Before the experiment, the monolayer was washed twice and preincubated with the blank HBSS for 1 h. Thereafter the HBSS solution on both sides of the cells monolayer was aspirated.
(§7) Transport studies were conducted in the absorptive direction (apical- (AP-) basolateral (BL)) and the efflux direction (BL-AP), separately. For determination of AP to BL transport, 2.5 mL of sample solutions was added to the AP side, respectively, and 2.5 mL of blank HBSS was added to the BL side. For determination of BL to AP transport, 2.5 mL of sample solutions was added to the BL side, respectively, and 2.5 mL of blank HBSS was added to the AP side. The cells monolayer was then put into a shaker at 50 rpm during the transport process. 400 μL of samples was taken for LC-MS/MS analysis at 0, 1, 2, 3, and 4 h after incubation, followed by an immediate replacement of 400 μL of the same solutions. At the end of the transport experiment, integrity of the monolayer was monitored by TEER value.
(§8) 400 μL of samples obtained from the Caco-2 cells transport assays was dried under nitrogen, and the residues were dissolved in 800 μL of 50% methanol. Followed by centrifugation at 12,000 rpm for 15 min, the supernatants were directly analyzed with UPLC-ESI-MS/MS. Chromatography-mass spectrum conditions were set as described above. The method researches of LC-MS/MS were similar to those described previously. Regression equations of gelsemine, humantenidine, koumine, gelsenicine, gelsevirine, and humantenine were Y = 23675X − 2864 (r = 0.9995), Y = 66331X + 13558 (r = 0.9995), Y = 6268X − 1503 (r = 0.9996), Y = 91160X − 10147 (r = 0.9998), Y = 32116X − 3951 (r = 0.9990), and Y = 36977X + 13830 (r = 0.9994), respectively.
as §2, §3

Caco-2 cells monolayer = assay: as above; format: in vitro ADME, Human; settings: for efflux ratio γ (Papp BL-AP / Papp AP-BL): GM without inhibitor; for decrement of absorbance percentage: GM (GE combined with MP) versus GE sample; for efflux Papp relative to absorptive Papp: GM sample
Protocol: as §5, §6, §7, §8, §2, §3

| SMILES | Papp A→B at 4 h (P-gp and MRP2) [×10⁻⁶ cm/s] | Papp B→A at 4 h (P-gp and MRP2) [×10⁻⁶ cm/s] | efflux ratio at 4 h (P-gp and MRP2) | Papp A→B at 4 h (P-gp) [×10⁻⁶ cm/s] | Papp B→A at 4 h (P-gp) [×10⁻⁶ cm/s] | efflux ratio at 4 h (P-gp) | efflux ratio γ (Papp BL-AP / Papp AP-BL) (Caco-2 cells monolayer) | decrease of efflux ratio γ (P-gp and MRP2) [%] | decrease of efflux ratio γ (P-gp) [%] | decrement of absorbance percentage (Caco-2 cells monolayer; apical to basolateral) | efflux Papp relative to absorptive Papp (Caco-2 cells monolayer) | Papp A→B (P-gp and MRP2) [×10⁻⁶ cm/s] | Papp B→A (P-gp and MRP2) [×10⁻⁶ cm/s] | efflux ratio (P-gp and MRP2) | Papp A→B (P-gp) [×10⁻⁶ cm/s] | Papp B→A (P-gp) [×10⁻⁶ cm/s] | efflux ratio (P-gp) | efflux ratio [1] | Papp A→B [1] [×10⁻⁶ cm/s] | Papp B→A [1] [×10⁻⁶ cm/s] | also measured |
| --- | --- | --- | --- | --- | --- | --- | --- | --- | --- | --- | --- | --- | --- | --- | --- | --- | --- | --- | --- | --- | --- |
| C=C[C@]12CN(C)[C@@H]3[C@H]4CO[C@H](C[C@H]41)[C@]1(C(=O)Nc4ccccc41)[C@@H]32 [Gelsemine, gelsemine] | 35.6 ± 7.63 | 39.1 ± 8.91 | 1.1 | 30.3 ± 7.45 | 33.2 ± 8 | 1.09 | 1.07 |  |  |  |  |  |  |  |  |  |  |  |  |  | efflux ratio at 4 h [1]: ~1; Papp A→B at 4 h [1]: 6.83 ± 2.64 ×10⁻⁶ cm/s; Papp B→A at 4 h [1]: 7.33 ± 2.77 ×10⁻⁶ cm/s |
| CCC1=N[C@H]2C[C@@]3(C(=O)N(OC)c4ccccc43)[C@H]3C[C@@H]1[C@@H]2CO3 [Gelsenicine, gelsenicine] | 101 ± 28.4 | 143 ± 10.8 | 1.42 | 86.6 ± 15.8 | 122 ± 26.1 | 1.4 | 2.39 | 40.59 | 41.42 | about 12% | approximately 2.0 times |  |  |  |  |  |  |  |  |  | efflux ratio at 4 h [1]: > 2; Papp A→B at 4 h [1]: 2.8 ± 0.11 ×10⁻⁶ cm/s; Papp B→A at 4 h [1]: 6.69 ± 1.35 ×10⁻⁶ cm/s |
| C=CC12CN(C)C3C4COC(CC41)C1(C(=O)N(OC)c4ccccc41)C32 (centres unmarked) [Gelsevirine, gelsevirine] |  |  |  |  |  |  | 2.00 | 34.00 | 36.00 | over 3% | approximately 2.0 times | 464 ± 93.8 | 614 ± 56.8 | 1.32 | 392 ± 58.1 | 503 ± 93 | 1.28 | > 2 | 6.33 ± 2.31 | 12.7 ± 2.67 |  |
| CCC1=NC2CC3(C(=O)N(OC)c4ccccc43)C3OCC2C1C3O (centres unmarked) [Humantenidine, humantenidine] |  |  |  |  |  |  | 2.93 | 42.32 | 43.69 |  | approximately 2.0 times | 4.48 ± 1.06 | 7.57 ± 0.36 | 1.69 | 3.14 ± 1.19 | 6.17 ± 0.57 | 1.65 | > 2 | 0.14 ± 0.044 | 0.41 ± 0.05 | absorbance percentage, rank among all indole alkaloids (Caco-2 cells monolayer; GE sample, apical to basolateral, during 4 h): highest |
| C/C=C1\CN(C)[C@H]2C[C@@]3(C(=O)N(OC)c4ccccc43)[C@H]3C[C@@H]1[C@@H]2CO3 [Humantenine, humantenine] |  |  |  |  |  |  |  | 15.07 | 8.90 | about 12% |  | 515 ± 101 | 637 ± 90.1 | 1.24 | 437 ± 71.2 | 580 ± 109 | 1.33 | 1.46 | 6.93 ± 1.59 | 9.87 ± 1.75 |  |
| C=C[C@@]12CN(C)[C@H]3C[C@]14C(=Nc1ccccc14)[C@H]1C[C@@H]2[C@@H]3CO1 [Koumine, koumine] |  |  |  |  |  |  | 1.13 |  |  |  |  | 440 ± 93.3 | 524 ± 91.5 | 1.19 | 348 ± 67.4 | 416 ± 80.5 | 1.19 | ~1 | 11.8 ± 4.01 | 13.4 ± 3.84 |  |
